Source: patent US9481676B2, “Azepino[4,5-B]indoles and methods of use” (Medivation Technologies, Inc., priority 2008, dated 2016)

Columns and labels:
brain cells (neurons) = settings: preclinical models of Alzheimer's disease and Huntington's disease; cited from earlier work
[1] = test system: cells treated with the cell toxin ionomycin; settings: cited from earlier work
[2] = test system: neurite outgrowth and neurogenesis; settings: cited from earlier work
[3] = target: T1, human recombinant histamine H1 receptor (Homo sapiens, UniProt P35367); assay: Histamine H1 radioligand binding ([3H]Pyrilamine); settings: compound at 1 μM; read-out: Histamine Binding (1 μM) H1, percent inhibition of specific binding
T1 construct: expressed in transfected cells; host or cells: CHO cells
T1 sequence (P35367 whole entry): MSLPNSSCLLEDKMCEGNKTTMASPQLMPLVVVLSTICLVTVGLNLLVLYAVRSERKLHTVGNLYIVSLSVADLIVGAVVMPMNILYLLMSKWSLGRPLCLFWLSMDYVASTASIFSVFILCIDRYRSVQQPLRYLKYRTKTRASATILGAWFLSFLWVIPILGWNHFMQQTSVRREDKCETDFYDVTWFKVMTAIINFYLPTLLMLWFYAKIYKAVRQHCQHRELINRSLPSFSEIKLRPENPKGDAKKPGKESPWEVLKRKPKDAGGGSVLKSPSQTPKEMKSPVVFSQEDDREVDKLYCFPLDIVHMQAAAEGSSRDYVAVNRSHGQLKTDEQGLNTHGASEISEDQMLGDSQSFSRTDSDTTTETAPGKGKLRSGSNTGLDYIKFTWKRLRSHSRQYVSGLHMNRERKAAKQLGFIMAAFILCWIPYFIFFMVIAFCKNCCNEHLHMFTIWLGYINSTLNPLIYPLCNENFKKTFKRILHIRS
Description: To evaluate in radioligand binding assays the activity of compounds of the invention, human recombinant histamine H1 receptor expressed in Chinese hamster ovary (CHO) cells (De Backer, M. D. et al., Biochem. Biophys. Res. Comm. 197(3):1601, 1993) in a modified Tris-HCl buffer (50 mM Tris-HCl, pH 7.4, 2 mM MgCl2, 100 mM NaCl, 250 mM Sucrose) was used. Compounds of the invention were incubated with 1.2 nM [^3H]Pyrilamine for 180 min. at 25° C. Non-specific binding was estimated in the presence of 1 μM pyrilamine. Receptor proteins were filtered and washed, the filters were then counted to determine [^3H]Pyrilamine specifically bound. Compounds were screened at 1 μM or lower, using 1% DMSO as vehicle. Biochemical assay results are presented as the percent inhibition of specific binding in Table 6.

[4] = target: T2, human recombinant histamine H2 receptor (Homo sapiens, UniProt P25021); assay: Histamine H2 radioligand binding ([125I]Aminopotentidine); settings: compound at 1 μM; read-out: Histamine Binding (1 μM) H2, percent inhibition of specific binding
T2 construct: expressed in transfected cells; host or cells: CHO-K1 cells
T2 sequence (P25021 whole entry): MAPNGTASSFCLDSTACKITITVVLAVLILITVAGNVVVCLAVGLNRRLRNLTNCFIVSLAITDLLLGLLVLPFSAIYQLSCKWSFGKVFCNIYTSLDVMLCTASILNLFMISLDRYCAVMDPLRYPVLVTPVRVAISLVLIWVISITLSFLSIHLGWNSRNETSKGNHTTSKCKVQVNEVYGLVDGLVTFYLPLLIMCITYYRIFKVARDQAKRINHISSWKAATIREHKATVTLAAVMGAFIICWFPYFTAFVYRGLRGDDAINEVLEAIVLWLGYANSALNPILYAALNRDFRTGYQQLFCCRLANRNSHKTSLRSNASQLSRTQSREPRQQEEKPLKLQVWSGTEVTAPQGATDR
Description: To evaluate in radioligand binding assays the activity of compounds of the invention, human recombinant histamine H2 receptor expressed in Chinese hamster ovary (CHO) K1 cells (Ruat, M., Proc. Natl. Acad. Sci. USA. 87(5):1658, 1990) in a 50 mM Phosphate buffer, pH 7.4 was used. Compounds of the invention were incubated with 0.1 nM [^125I]Aminopotentidine for 120 min. at 25° C. Non-specific binding was estimated in the presence of 3 μM Tiotidine. Receptor proteins were filtered and washed, the filters were then counted to determine [^125I]Aminopotentidine specifically bound. Compounds were screened at 1 μM or lower, using 1% DMSO as vehicle. Biochemical assay results are presented as the percent inhibition of specific binding in Table 6.

[5] = target: T3, human recombinant dopamine D2L receptor (Homo sapiens, UniProt P14416); assay: Dopamine D2L radioligand binding ([3H]Spiperone); settings: compound at 1 μM; read-out: Dopamine (1 μM) D2L, percent inhibition of specific binding
T3 construct: expressed in transfected cells; host or cells: CHO cells
T3 sequence (P14416 whole entry): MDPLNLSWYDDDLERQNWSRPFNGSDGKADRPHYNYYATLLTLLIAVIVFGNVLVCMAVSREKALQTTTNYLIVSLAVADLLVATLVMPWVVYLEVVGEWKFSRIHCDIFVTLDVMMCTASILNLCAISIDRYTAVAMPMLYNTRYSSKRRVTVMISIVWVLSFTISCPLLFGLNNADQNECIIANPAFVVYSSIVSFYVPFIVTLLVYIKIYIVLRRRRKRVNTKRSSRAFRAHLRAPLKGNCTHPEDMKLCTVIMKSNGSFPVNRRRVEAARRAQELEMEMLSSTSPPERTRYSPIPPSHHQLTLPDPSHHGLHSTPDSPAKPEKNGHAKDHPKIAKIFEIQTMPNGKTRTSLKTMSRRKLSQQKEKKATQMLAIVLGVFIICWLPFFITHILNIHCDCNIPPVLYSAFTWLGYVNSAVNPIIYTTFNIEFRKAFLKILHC
Description: To evaluate in radioligand binding assays the activity of compounds of the invention, human recombinant dopamine D2L receptor expressed in Chinese hamster ovary (CHO) cells (Grandy, D. K. et al. Proc. Natl. Acad. Sci. USA. 86:9762, 1989; Hayes, G. et al., Mol. Endocrinol. 6:920, 1992) in a modified Tris-HCl buffer (50 mM Tris-HCl, pH 7.4, 1.4 mM Ascorbic Acid, 0.001% BSA, 150 mM NaCl) was used. Compounds of the invention were incubated with 0.16 nM [^3H]Spiperone for 120 min. at 25° C. Non-specific binding was estimated in the presence of 10 μM Haloperidol. Receptor proteins were filtered and washed, the filters were then counted to determine [^3H]Spiperone specifically bound. Compounds were screened at 1 μM or lower, using 1% DMSO as vehicle. Biochemical assay results are presented as the percent inhibition of specific binding in Table 5.

[6] = target: T4, human recombinant serotonin (5-Hydroxytryptamine) 5-HT2A receptor (Homo sapiens, UniProt P28223); assay: Serotonin 5-HT2A radioligand binding ([3H]Ketanserin); settings: compound at 1 μM; read-out: Serotonin (1 μM) 5-HT2A, percent inhibition of specific binding
T4 construct: expressed in transfected cells; host or cells: CHO-K1 cells
T4 sequence (P28223 whole entry): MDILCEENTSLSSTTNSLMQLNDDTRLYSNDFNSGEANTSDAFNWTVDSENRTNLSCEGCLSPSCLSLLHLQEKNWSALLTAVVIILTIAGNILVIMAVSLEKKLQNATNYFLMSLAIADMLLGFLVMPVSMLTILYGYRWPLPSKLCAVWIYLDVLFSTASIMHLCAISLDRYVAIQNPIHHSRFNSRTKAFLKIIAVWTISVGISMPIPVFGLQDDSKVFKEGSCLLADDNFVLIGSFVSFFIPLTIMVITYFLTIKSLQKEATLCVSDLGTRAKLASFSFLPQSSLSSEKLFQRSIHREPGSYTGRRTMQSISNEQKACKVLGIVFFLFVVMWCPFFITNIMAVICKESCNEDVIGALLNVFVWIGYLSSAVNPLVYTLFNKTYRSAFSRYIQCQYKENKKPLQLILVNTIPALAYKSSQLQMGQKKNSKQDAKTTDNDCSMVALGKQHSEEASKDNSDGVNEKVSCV
Description: To evaluate in radioligand binding assays the activity of compounds of the invention, human recombinant serotonin (5-Hydroxytryptamine) 5-HT2A receptor expressed in Chinese hamster ovary (CHO-K1) cells (Bonhaus, D. W. et al. Br. J. Pharmacol. 115:622, 1995; Saucier, C. and Albert, P. R., J. Neurochem. 68:1998, 1997) in a 50 mM Tris-HCl buffer, pH 7.4, was used. Compounds of the invention were incubated with 0.5 nM [^3H]Ketanserin for 60 min. at 25° C. Non-specific binding was estimated in the presence of 1 μM Mianserin. Receptor proteins were filtered and washed, the filters were then counted to determine [^3H]Ketanserin specifically bound. Compounds were screened at 1 μM or lower, using 1% DMSO as vehicle. Biochemical assay results are presented as the percent inhibition of specific binding in Table 6.

[7] = target: T5, human recombinant serotonin (5-Hydroxytryptamine) 5-HT2C receptor (Homo sapiens, UniProt P28335); assay: Serotonin 5-HT2C radioligand binding ([3H]Mesulergine); settings: compound at 1 μM; read-out: Serotonin (1 μM) 5-HT2C, percent inhibition of specific binding
T5 construct: expressed in transfected cells; host or cells: CHO-K1 cells
T5 sequence (P28335 33-458): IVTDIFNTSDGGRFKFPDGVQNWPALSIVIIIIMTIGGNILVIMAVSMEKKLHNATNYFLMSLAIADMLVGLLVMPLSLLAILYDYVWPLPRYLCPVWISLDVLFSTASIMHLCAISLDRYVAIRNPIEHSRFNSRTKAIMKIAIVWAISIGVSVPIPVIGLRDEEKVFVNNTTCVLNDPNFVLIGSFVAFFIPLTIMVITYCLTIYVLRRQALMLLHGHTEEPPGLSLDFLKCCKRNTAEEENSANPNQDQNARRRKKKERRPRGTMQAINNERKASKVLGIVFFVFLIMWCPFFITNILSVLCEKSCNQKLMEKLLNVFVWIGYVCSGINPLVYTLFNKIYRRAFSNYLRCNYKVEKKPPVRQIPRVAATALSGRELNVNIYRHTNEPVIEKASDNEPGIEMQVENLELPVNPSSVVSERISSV
Description: To evaluate in radioligand binding assays the activity of compounds of the invention, human recombinant serotonin (5-Hydroxytryptamine) 5-HT2C receptor expressed in Chinese hamster ovary (CHO-K1) cells (Wolf, W. A. and Schutz, J. S., J. Neurochem. 69:1449, 1997) in a modified Tris-HCl buffer (50 mM Tris-HCl, pH 7.4, 0.1% Ascorbic Acid, 10 μM Pargyline) was used. Compounds of the invention were incubated with 1 nM [^3H]Mesulergine for 60 min. at 25° C. Non-specific binding was estimated in the presence of 1 μM Mianserin. Receptor proteins were filtered and washed, the filters were then counted to determine [^3H]Mesulergine specifically bound. Compounds were screened at 1 μM or lower, using 1% DMSO as vehicle. Biochemical assay results are presented as the percent inhibition of specific binding in Table 6.

[8] = target: T6, human recombinant serotonin (5-Hydroxytryptamine) 5-HT6 receptor (Homo sapiens, UniProt P50406); assay: Serotonin 5-HT6 radioligand binding ([3H]LSD); settings: compound at 1 μM; read-out: Serotonin (1 μM) 5-HT6, percent inhibition of specific binding
T6 construct: expressed in transfected cells; host or cells: human HeLa cells
T6 sequence (P50406 whole entry): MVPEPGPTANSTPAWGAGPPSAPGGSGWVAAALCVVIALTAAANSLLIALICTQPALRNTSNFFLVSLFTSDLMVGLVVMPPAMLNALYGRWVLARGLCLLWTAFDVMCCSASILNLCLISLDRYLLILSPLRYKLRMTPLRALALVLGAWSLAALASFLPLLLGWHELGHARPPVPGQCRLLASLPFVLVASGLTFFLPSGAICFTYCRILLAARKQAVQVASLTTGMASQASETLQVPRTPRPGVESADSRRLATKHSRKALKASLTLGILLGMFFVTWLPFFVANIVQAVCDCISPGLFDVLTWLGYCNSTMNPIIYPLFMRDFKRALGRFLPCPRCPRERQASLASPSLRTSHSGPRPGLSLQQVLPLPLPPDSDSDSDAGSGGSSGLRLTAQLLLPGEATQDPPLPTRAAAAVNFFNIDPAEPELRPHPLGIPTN
Description: To evaluate in radioligand binding assays the activity of compounds of the invention, human recombinant serotonin (5-Hydroxytryptamine) 5-HT6 receptor expressed in human HeLa cells (Monsma, F. J. Jr. et al., Mol. Pharmacol. 43:320, 1993) in a modified Tris-HCl buffer (50 mM Tris-HCl, pH 7.4, 150 mM NaCl, 2 mM Ascorbic Acid, 0.001% BSA) was used. Compounds of the invention were incubated with 1.5 nM [3H]Lysergic acid diethylamide (LSD) for 120 min. at 37° C. Non-specific binding was estimated in the presence of 5 μM Serotonin (5-HT). Receptor proteins were filtered and washed, the filters were then counted to determine [3H]LSD specifically bound. Compounds were screened at 1 μM or lower, using 1% DMSO as vehicle. Biochemical assay results are presented as the percent inhibition of specific binding in Table 6.

[9] = after treatment with the cell toxin ionomycin

Row | Structure (SMILES) | death of brain cells (neurons) (brain cells (neurons)) | mitochondrial function [1, 9] | number of surviving cells [1, 9] | mitochondrial function of cells ([1]; setting of cellular stress) | neurite outgrowth and neurogenesis [2] | inhibition at 1 µM [3] | inhibition at 1 µM [4] | inhibition at 1 µM [5] | inhibition at 1 µM [6] | inhibition at 1 µM [7] | inhibition at 1 µM [8]
1 | Cc1ccc2c(c1)c1c(n2CCc2ccc(C)nc2)CCN(C)C1 [Dimebon, dimebon] | inhibit the death of brain cells (neurons) | improved mitochondrial function | increased the number of surviving cells | improve the mitochondrial function of cells in the setting of cellular stress with very high potency | promote neurite outgrowth and neurogenesis | – | – | – | – | – | –
2 | COc1ccc(/C(C)=C/n2c3c(c4cc(Cl)ccc42)CCN(C)CC3)cc1 [Compound No. 160, (E)-9-chloro-1,2,3,4,5,6-hexahydro-6-(2-(4-methoxyphenyl)prop-1-enyl)-3-methylazepino[4,5-b]indole] | – | – | – | – | – | 87% | 91% | 17% | 94% | 103% | 99%
